# Results from PMC9944328 (Nature Communications, 2023).
# Test system: SSTR2 mutants
# Experiment: SSTRs Gi-mediated cAMP inhibition, GloSensor, HEK293, 5 μM forskolin, 15 min room temperature (SSTR2 mutants)
# Format: cell-based, human
# Experimental: The levels of the intracellular 3′, 5′-cyclic AMP (cAMP) were measured by the GloSensor cAMP assay (Promega) as described in the previous studies[28],[41] which has been widely used. The human full-length SSTRs and mutants were cloned into the pcDNA3.1+ vector with a HA signal sequence followed by a Flag tag at the N-terminus. HEK293 cells (ATCC, CRL-1573) were seeded into 6-well microplates at a density of 1.0 × 10^6 cells/well and cultured for 24 h at 37 °C with 5% CO2. Cells were then co-transfected with SSTR wild-type or mutants and GloSensor plasmids. After 24 h of transfection, the cells were dissociated with TrypLE™ Express Enzyme (1X) (Thermo Fisher Scientific) and collected by centrifugation at 500 × g for 5 min. Then the collected cells were suspended in Hank’s balanced salt solution [HBSS (Thermo Fisher Scientific)] supplemented with […] (YEASEN), and then the suspension cells were seeded into 96-well plates with 90 μl/well. After incubating at room temperature for 40 min, 5 μM forskolin and ligands diluted in HBSS were added to each well and the plates were incubated at room temperature for 15 min. […] were measured using the Synergy H1 microplate reader (BioTek) and the data presented are means of at least three independent experiments.
# [1] = Suppl. Table 4, SSTR2 D295(7.36)F, n=3
# [2] = Suppl. Table 4, SSTR2 F294(7.35)Y, n=3
# [3] = Suppl. Table 4, SSTR2 I195(45.52)M, n=3
# [4] = Suppl. Tables 4/5, SSTR2 V103(2.64)N, n=3
smiles,measurement,setting,value
N#Cc1cccc(-c2ccc3ncc(-c4cc(F)cc(F)c4)c(N4CCC(N)CC4)c3c2)c1O [paltusotine],Span (best-fit value),P220A-2 (run 2),119.1
same,Top (best-fit value),P220A-2 (run 2),123.6
same,Bottom (best-fit value),P220A-3 (run 3),2.569
same,LogEC50 (best-fit value),P220A-3 (run 3),-8.511
same,Span (best-fit value),P220A-3 (run 3),103.4
same,Top (best-fit value),P220A-3 (run 3),106
same,Fold of WT,"Suppl. Table 4, SSTR2 D295(7.36)F",0.67
same,EC50,[1],1.39 ± 1.95 nM
same,Emax,[1],75.57±7.43 %WT SSTR2
same,Fold of WT,"Suppl. Table 4, SSTR2 F294(7.35)Y",0.48
same,EC50,[2],0.99 ± 1.3 nM
same,Emax,[2],103.10±3.86 %WT SSTR2
same,Fold of WT,"Suppl. Table 4, SSTR2 I195(45.52)M",1.47
same,EC50,[3],3.05 ± 1.57 nM
same,Emax,[3],89.43±6.05 %WT SSTR2
same,Fold of WT,"Suppl. Table 4, SSTR2 Y205(5.35)R",0.16
same,EC50,"Suppl. Table 4, SSTR2 Y205(5.35)R, n=3",0.34 nM
same,Fold of WT,"Suppl. Tables 4/5, SSTR2 T194(45.51)H",72.45
same,Emax,"Suppl. Tables 4/5, SSTR2 T194(45.51)H, n=3",103.80±12.72 %WT SSTR2
same,Fold of WT,"Suppl. Tables 4/5, SSTR2 V103(2.64)N",5.75
same,EC50,[4],12 ± 1.33 nM
same,Emax,[4],99.52±4.73 %WT SSTR2
same,Receptor activation of mutant,T194(45.51)H in SSTR2,significantly reduced receptor activation
same,EC50,"T194A, run 1, best-fit",54.2 nM
same,LogEC50,"T194A, run 1, best-fit",-7.266
same,EC50,"T194A, run 2, best-fit",52.7 nM
same,LogEC50,"T194A, run 2, best-fit",-7.278
same,EC50,"T194A, run 3, best-fit",125 nM
same,LogEC50,"T194A, run 3, best-fit",-6.904
same,Bottom (best-fit),"T194H, run 1",6.584
same,EC50,"T194H, run 1",123 nM
same,LogEC50,"T194H, run 1",-6.909
same,Span (best-fit),"T194H, run 1",95.8
same,Top (best-fit),"T194H, run 1",102.4
same,Bottom (best-fit),"T194H, run 2",-1.67
same,EC50,"T194H, run 2",151 nM
same,LogEC50,"T194H, run 2",-6.822
same,Span (best-fit),"T194H, run 2",105.4
same,Top (best-fit),"T194H, run 2",103.8
same,Bottom (best-fit),"T194H, run 3",-5.336
same,EC50,"T194H, run 3",125 nM
same,LogEC50,"T194H, run 3",-6.902
same,Span (best-fit),"T194H, run 3",128.8
same,Top (best-fit),"T194H, run 3",123.4
same,Impact on Gi signaling,V103(2.64)A,less impact on Gi signaling
same,Receptor activation of mutant,V103(2.64)N in SSTR2,reduced receptor activation induced by paltusotine
same,Bottom (best-fit),"V103N, run 1",8.462
same,EC50,"V103N, run 1",11.7 nM
same,LogEC50,"V103N, run 1",-7.932
same,Span (best-fit),"V103N, run 1",90.96
same,Top (best-fit),"V103N, run 1",99.42
same,Bottom (best-fit),"V103N, run 2",-2.517
same,EC50,"V103N, run 2",36.2 nM
same,LogEC50,"V103N, run 2",-7.441
same,Span (best-fit),"V103N, run 2",109.6
same,Top (best-fit),"V103N, run 2",107.1
same,Bottom (best-fit),"V103N, run 3",-1.625
same,EC50,"V103N, run 3",11.7 nM
same,LogEC50,"V103N, run 3",-7.93
same,Span (best-fit),"V103N, run 3",109.5
same,Top (best-fit),"V103N, run 3",107.8
same,Bottom (best-fit value),W269A-1 (run 1),-6.112
same,LogEC50 (best-fit value),W269A-1 (run 1),-9.221
same,Span (best-fit value),W269A-1 (run 1),105.6
same,Top (best-fit value),W269A-1 (run 1),99.48
same,Bottom (best-fit value),W269A-2 (run 2),-8.179
same,LogEC50 (best-fit value),W269A-2 (run 2),-9.298
same,Span (best-fit value),W269A-2 (run 2),111.2
same,Top (best-fit value),W269A-2 (run 2),103
same,Bottom (best-fit value),W269A-3 (run 3),-4.689
same,LogEC50 (best-fit value),W269A-3 (run 3),-9.219
same,Span (best-fit value),W269A-3 (run 3),124.8
same,Top (best-fit value),W269A-3 (run 3),120.1
same,EC50,"Y50A, run 1, best-fit",3.61 nM
same,LogEC50,"Y50A, run 1, best-fit",-8.443
same,EC50,"Y50A, run 2, best-fit",3.74 nM
same,LogEC50,"Y50A, run 2, best-fit",-8.427
same,EC50,"Y50A, run 3, best-fit",3.4 nM
same,LogEC50,"Y50A, run 3, best-fit",-8.469
same,Bottom (best-fit value),Y205A-1 (run 1),11.16
same,LogEC50 (best-fit value),Y205A-1 (run 1),-9.464
same,Span (best-fit value),Y205A-1 (run 1),82.7
same,Top (best-fit value),Y205A-1 (run 1),93.87
same,Bottom (best-fit value),Y205A-2 (run 2),-6.723
same,LogEC50 (best-fit value),Y205A-2 (run 2),-9.038
same,Span (best-fit value),Y205A-2 (run 2),105.5
same,Top (best-fit value),Y205A-2 (run 2),98.77
same,Bottom (best-fit value),Y205A-3 (run 3),0.8743
same,LogEC50 (best-fit value),Y205A-3 (run 3),-9.745
same,Span (best-fit value),Y205A-3 (run 3),102.6
same,Top (best-fit value),Y205A-3 (run 3),103.5
same,LogEC50,"Y205R, run 1",-9.464
same,Span (best-fit),"Y205R, run 1",104.7
same,Top (best-fit),"Y205R, run 1",106.2
same,LogEC50,"Y205R, run 2",-9.626
same,Span (best-fit),"Y205R, run 2",101.5
same,Top (best-fit),"Y205R, run 2",105.3
same,LogEC50,"Y205R, run 3",-8.061
same,Span (best-fit),"Y205R, run 3",97.31
same,Top (best-fit),"Y205R, run 3",99.13
same,"Bottom (best-fit value), cAMP inhibition",Y302A-1 (run 1),5.692
